Experimental data published in patent US12521395B2, “Gem-disubstituted heterocyclic compounds and their use as IDH inhibitors” (NERVIANO MEDICAL SCIENCES S.R.L., priority 2019, dated 2026).

What follows are molecules tested against IDH1^R132C (Homo sapiens, UniProt O75874, R132C) (assay: NADPH depletion assay (diaphorase/resazurin), IDH1 R132C). Conditions: IDH1^R132C 2 nM, alpha-ketoglutarate 0.14 mM; read-out: IDH1^R132C IC50.
Assay type: biochemical
Method: IDH mutated enzyme activity converting alpha-ketoglutarate to 2-hydroxyglutaric acid is measured using a NADPH depletion assay. In the assay the remaining cofactor is measured at the end of the reaction with the addition of a catalytic excess of diaphorase and resazurin, to generate a fluorescent signal in proportion to the amount of NADPH remaining. IDH1 WT enzyme as well as mutated isoforms IDH1^R132H, IDH1^R132C, and IDH2^R172K enzymes are commercially available proteins (see e.g. Sino Biological, Abcam, Active Motif or Creative BioMart).
IDH1^R132H homodimer enzyme are diluted to 8 nM, in 10 μL of Assay Buffer (150 mM NaCl, 50 mM Tris-HCl pH 7.6, 10 mM MgCl2, 0.001% Triton X-100, 4 mM β-mercaptoethanol); 0.2 μL of test compound, previously serially diluted 1 to 3, >10 experimental points from 1 mM in DMSO, is added and the mixture is incubated for 15 minutes at room temperature. The reaction is started with the addition of 10 μL of Substrate Mix (12 μM NADPH, 3.4 mM alpha-ketoglutarate in Assay Buffer) and the mixture is incubated for 60 minutes at room temperature. The reaction is terminated with the addition of 5 μl of Detection Buffer (100 μg/mL diaphorase, 30 μM resazurin, in IX Assay Buffer), and is incubated for 15 minutes before reading on a ViewLux as platereader at Ex544/Em590.
Compounds are assayed for their activity against IDH1^R132C following the same assay as above with the following modifications: IDH1^R132C and alpha-ketoglutarate final concentrations in the Assay Buffer is 2 nM and 0.14 mM, respectively.

Sequence of IDH1^R132C (O75874 whole entry R132C): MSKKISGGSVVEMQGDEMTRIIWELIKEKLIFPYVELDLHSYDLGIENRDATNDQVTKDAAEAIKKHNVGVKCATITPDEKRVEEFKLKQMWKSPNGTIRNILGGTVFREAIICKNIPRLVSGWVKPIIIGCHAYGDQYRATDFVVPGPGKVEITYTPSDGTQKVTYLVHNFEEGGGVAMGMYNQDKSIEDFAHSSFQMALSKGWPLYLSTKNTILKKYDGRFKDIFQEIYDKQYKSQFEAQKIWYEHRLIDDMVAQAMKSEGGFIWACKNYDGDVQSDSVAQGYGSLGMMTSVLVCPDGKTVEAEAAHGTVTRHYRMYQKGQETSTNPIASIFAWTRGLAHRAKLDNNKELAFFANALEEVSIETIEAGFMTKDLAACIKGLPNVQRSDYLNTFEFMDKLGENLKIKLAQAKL

IC50	Structure (SMILES)
4 nM	C=CC(=O)N1CCN(C2(c3ccc([C@H](C)Nc4ncc5ccc(=O)n(C(CC)CC)c5n4)cc3)CCOCC2)CC1 [cpd 35, 2-{[(1S)-1-{4-[4-(4-acryloylpiperazin-1-yl)tetrahydro-2H-pyran-4-yl]phenyl}ethyl]amino}-8-(pentan-3-yl)pyrido[2,3-d]pyrimidin-7(8H)-one]
928 nM	C=C(F)C(=O)N1CCN(C2(c3ccc([C@H](C)Nc4ncc5ccc(=O)n(C(C)C)c5n4)cc3)CCOCC2)CC1 [cpd 54, 2-{[(1S)-1-(4-{4-[4-(2-fluoroacryloyl)piperazin-1-yl]tetrahydro-2H-pyran-4-yl}phenyl)ethyl]amino}-8-(propan-2-yl) pyrido[2,3-d]pyrimidin-7(8H)-one]
55 nM	C=CC(=O)N1CCN(C2(c3ccc([C@@H](C)Nc4cc5c(ccc(=O)n5C(C)C)cn4)cc3)CCC(F)(F)CC2)CC1 [cpd 63, 7-{[(1R)-1-{4-[1-(4-acryloylpiperazin-1-yl)-4,4-difluorocyclohexyl]phenyl}ethyl]amino}-1-(propan-2-yl)-1,6-naphthyridin-2(1H)-one]
533 nM	C=CC(=O)N[C@H](C)C(=O)NC1(c2ccc([C@H](C)Nc3ncc4ccc(=O)n(C(C)C)c4n3)cc2)CCC(F)(F)CC1 [cpd 57, N2-acryloyl-N-(4,4-difluoro-1-{4-[(1S)-1-{[7-oxo-8-(propan-2-yl)-7,8-dihydropyrido[2,3-d]pyrimidin-2-yl]amino}ethyl]phenyl}cyclohexyl)-D-alaninamide]
1060 nM	CCN1CCN(C2(c3ccc([C@H](C)Nc4ncc5c(n4)N(CC)C(=O)OC5)cc3)CCOCC2)CC1 [cpd 45, 7-{[(1S)-1-{4-[4-(4-ethylpiperazin-1-yl)tetrahydro-2H-pyran-4-yl]phenyl}ethyl]amino}-1-ethyl-1,4-dihydro-2H-pyrimido[4,5-d][1,3]oxazin-2-one]
75 nM	C=CC(=O)NCCN(C(=O)C(F)(F)F)C1(c2ccc([C@H](C)Nc3ncc4ccc(=O)n(C(C)C)c4n3)cc2)CCOCC1 [cpd 66, N-{2-[(4-{4-[(1S)-1-{[7-oxo-8-(propan-2-yl)-7,8-dihydropyrido[2,3-d]pyrimidin-2-yl]amino}ethyl]phenyl}tetrahydro-2H-pyran-4-yl)(trifluoroacetyl)amino]ethyl}prop-2-enamide]
24 nM	C=CC(=O)N1CCN(C2(c3ccc([C@H](C)Nc4ncc5c(C)cc(=O)n(C(C)C)c5n4)cc3)CCOCC2)CC1 [cpd 18, 2-{[(1S)-1-{4-[4-(4-acryloylpiperazin-1-yl)tetrahydro-2H-pyran-4-yl]phenyl}ethyl]amino}-5-methyl-8-(propan-2-yl) pyrido[2,3-d]pyrimidin-7(8H)-one]
305 nM	CC(C)n1c(=O)ccc2cnc(N[C@@H](C)c3ccc(C4(N5CCN(C#N)CC5)CCOCC4)cc3)nc21 [cpd 65, 4-(4-{4-[(1S)-1-{[7-oxo-8-(propan-2-yl)-7,8-dihydropyrido[2,3-d]pyrimidin-2-yl]amino}ethyl]phenyl}tetrahydro-2H-pyran-4-yl)piperazine-1-carbonitrile]
904 nM	C=C(C)C(=O)N1CCN(C2(c3ccc([C@H](C)Nc4ncc5ccc(=O)n(C(C)C)c5n4)cc3)CCOCC2)CC1 [cpd 21, 2-{[(1S)-1-(4-{4-[4-(2-methylacryloyl)piperazin-1-yl]tetrahydro-2H-pyran-4-yl}phenyl)ethyl]amino}-8-(propan-2-yl) pyrido[2,3-d]pyrimidin-7(8H)-one]
53.8 nM	C=CC(=O)N1CCN(C2(c3ccc([C@H](C)Nc4nc(C)c5ccc(=O)n(C(C)C)c5n4)cc3)CCOCC2)CC1 [cpd 13, 2-{[(1S)-1-{4-[4-(4-acryloylpiperazin-1-yl)tetrahydro-2H-pyran-4-yl]phenyl}ethyl]amino}-4-methyl-8-(propan-2-yl) pyrido[2,3-d]pyrimidin-7(8H)-one]
71 nM	CC(C)n1c(=O)ccc2cnc(N[C@@H](C)c3ccc(C4(N5CCN(C(=O)C(O)CO)CC5)CCC(F)(F)CC4)cc3)cc21 (stereo partly drawn) [cpd 60, 7-{[(1S)-1-(4-{1-[4-(2,3-dihydroxypropanoyl)piperazin-1-yl]-4,4-difluorocyclohexyl}phenyl)ethyl]amino}-1-(propan-2-yl)-1,6-naphthyridin-2(1H)-one]
991 nM	C=CC(=O)N1CCN(C2(c3ccc([C@H](C)Nc4nc(NC)c5ccc(=O)n(C(C)C)c5n4)cc3)CCOCC2)CC1 [cpd 37, 2-{[(1S)-1-{4-[4-(4-acryloylpiperazin-1-yl)tetrahydro-2H-pyran-4-yl]phenyl}ethyl]amino}-4-(methylamino)-8-(propan-2-yl)pyrido[2,3-d]pyrimidin-7(8H)-one]
332 nM	C=CC(=O)N1CCN(C2(c3ccc(CNc4ncc5ccc(=O)n(C(C)C)c5n4)cc3)CCOCC2)CC1 [cpd 31, 2-({4-[4-(4-acryloylpiperazin-1-yl)tetrahydro-2H-pyran-4-yl]benzyl}amino)-8-(propan-2-yl)pyrido[2,3-d]pyrimidin-7(8H)-one]
151 nM	C=CC(=O)NCCNC1(c2ccc([C@H](C)Nc3ncc4ccc(=O)n(C(C)C)c4n3)cc2)CCOCC1 [cpd 59, N-{2-[(4-{4-[(1S)-1-{[7-oxo-8-(propan-2-yl)-7,8-dihydropyrido[2,3-d]pyrimidin-2-yl]amino}ethyl]phenyl}tetrahydro-2H-pyran-4-yl)amino]ethyl}prop-2-enamide]
321 nM	C=CC(=O)NCC(=O)NC1(c2ccc([C@H](C)Nc3ncc4ccc(=O)n(C(C)C)c4n3)cc2)CCC(F)(F)CC1 [cpd 56, N-{2-[(4,4-difluoro-1-{4-[(1S)-1-{[7-oxo-8-(propan-2-yl)-7,8-dihydropyrido[2,3-d]pyrimidin-2-yl]amino}ethyl]phenyl}cyclohexyl)amino]-2-oxoethyl}prop-2-enamide]
988 nM	C=CC(=O)N1CCN(C2(c3ccc([C@H](C)Nc4nc(N(C)C)c5ccc(=O)n(C(C)C)c5n4)cc3)CCOCC2)CC1 [cpd 36, 2-{[(1S)-1-{4-[4-(4-acryloylpiperazin-1-yl)tetrahydro-2H-pyran-4-yl]phenyl}ethyl]amino}-4-(dimethylamino)-8-(propan-2-yl)pyrido[2,3-d]pyrimidin-7(8H)-one]
352 nM	C=CC(=O)N[C@@H](C)C(=O)NC1(c2ccc([C@H](C)Nc3ncc4ccc(=O)n(C(C)C)c4n3)cc2)CCC(F)(F)CC1 [cpd 58, N2-acryloyl-N-(4,4-difluoro-1-{4-[(1S)-1-{[7-oxo-8-(propan-2-yl)-7,8-dihydropyrido[2,3-d]pyrimidin-2-yl]amino}ethyl]phenyl}cyclohexyl)-L-alaninamide]
11 nM	[2H]C([2H])([2H])C([2H])(n1c(=O)ccc2cnc(N[C@@H](C)c3ccc(C4(N5CCN(C(=O)C=C)CC5)CCOCC4)cc3)nc21)C([2H])([2H])[2H] [cpd 55, 2-{[(1S)-1-{4-[4-(4-acryloylpiperazin-1-yl)tetrahydro-2H-pyran-4-yl]phenyl}ethyl]amino}-8-[(^2H7)propan-2-yl]pyrido[2,3-d]pyrimidin-7(8H)-one]
13 nM	C=CC(=O)N1CCN(C(C)(CC)c2ccc([C@H](C)Nc3ncc4ccc(=O)n(C(C)C)c4n3)cc2)CC1 (stereo partly drawn) [cpd 46, 2-{[(1S)-1-{4-[2-(4-acryloylpiperazin-1-yl)butan-2-yl]phenyl}ethyl]amino}-8-(propan-2-yl)pyrido[2,3-d]pyrimidin-7(8H)-one]
98 nM	C=CC(=O)N1CCN(C2(c3ccc([C@H](C)Nc4ncc5ccc(=O)n(C(C)C)c5n4)nc3)CCOCC2)CC1 [cpd 27, 2-{[(1S)-1-{5-[4-(4-acryloylpiperazin-1-yl)tetrahydro-2H-pyran-4-yl]pyridin-2-yl}ethyl]amino}-8-(propan-2-yl)pyrido[2,3-d]pyrimidin-7(8H)-one]
32 nM	CCC(=O)N1CCN(C2(c3ccc([C@H](C)Nc4cc5c(ccc(=O)n5C(C)C)cn4)cc3)CCC(F)(F)CC2)CC1 [cpd 67, 7-{[(1S)-1-{4-[4,4-difluoro-1-(4-propanoylpiperazin-1-yl)cyclohexyl]phenyl}ethyl]amino}-1-(propan-2-yl)-1,6-naphthyridin-2(1H)-one]
2 nM	C=CC(=O)N1CC(N(C(C)=O)C2(c3ccc([C@H](C)Nc4cc5c(ccc(=O)n5C(C)C)cn4)cc3)CCC(F)(F)CC2)C1 [cpd 62, N-(1-acryloylazetidin-3-yl)-N-(4,4-difluoro-1-{4-[(1S)-1-{[2-oxo-1-(propan-2-yl)-1,2-dihydro-1,6-naphthyridin-7-yl]amino}ethyl]phenyl}cyclohexyl)acetamide]
1470 nM	CC#CC(=O)N1CCN(C2(c3ccc([C@H](C)Nc4ncc5ccc(=O)n(C(C)C)c5n4)cc3)CCOCC2)CC1 [cpd 5, 2-{[(1S)-1-(4-{4-[4-(but-2-ynoyl)piperazin-1-yl]tetrahydro-2H-pyran-4-yl}phenyl)ethyl]amino}-8-(propan-2-yl)pyrido[2,3-d]pyrimidin-7(8H)-one]
64 nM	C=CC(=O)N1CCN(C2(c3ccc([C@H](C)Nc4ncc5ccc(=O)n(C(C)C)c5n4)cc3)CCN(C)CC2)CC1 [cpd 32, 2-{[(1S)-1-{4-[4-(4-acryloylpiperazin-1-yl)-1-methylpiperidin-4-yl]phenyl}ethyl]amino}-8-(propan-2-yl)pyrido[2,3-d]pyrimidin-7(8H)-one]
